# Test results taken from patent US11116217B2, “Synergistic biocidal compositions containing 5-chloro-2-methylisothiazolin-3-one” (Thor GmbH, priority 2016, dated 2021).
# Marks after values point to notes of the source that are not given here.
# Test system: Pseudomonas putida (DSM 25068)
# Assay: Minimum inhibitory concentration and synergy index (Kull) of CMIT combinations in Müller-Hinton broth microtiter plates
# Type: cell-based
# Details: 48 hours at 30° C.; for synergy index: SI=Qa/QA+Qb/QB
# From the text: The synergism of a combination of 5-chloro-2-methylisothiazolin-3-one, containing 0.003 wt. %, in relation to the total proportion of 5-chloro-2-methyl-4-isothiazolin-3-one, of 2-methylisothiazolin-3-one, each time with a biocide/substance selected from the group of 1,2-benzisothiazolin-3-one (BIT), 2-bromo-2-nitropropane-1,3-diol (Bronopol), and zinc, was investigated for a synergistic interaction.
# The test organisms used were the Gram-negative bacterium Pseudomonas putida (DSM 25068). For this, mixtures with different concentrations of the respective active substances were prepared and tested in regard to their effect on Pseudomonas putida. The testing was done in Müller-Hinton broth MHB (pH 7.0) with a cell density of 10^6 germs per ml.
# The incubation time of the microtiter plates was 48 hours at 30° C. After 48 hours, the batches were evaluated for turbidity due to growth and, in addition, the optical density was determined by photometry. In this way, the minimum inhibitory concentrations (MHK) were determined for the two active substances individually and in combination.
# The resulting synergism was represented numerically by calculating the synergy index (SI). The calculation was done by the customary method of F. C. Kull et al., Applied Microbiology, Vol. 9 (1961), p. 538. Loc. cit., the SI is calculated by the following formula: synergy index SI=Qa/QA+Qb/QB Qa=concentration of component A in the mixture A+B QA=concentration of component A as solitary biocide Qb=concentration of component B in the mixture A+B QB=concentration of component B as solitary biocide
# If the synergy index has a value over 1, this means that an antagonism is present. If the synergy index takes on the value 1, this means that an addition of the effect of the two biocides/compounds is present. If the synergy index takes on a value below 1, this means that a synergism exists for the two biocides.
# [1] = CMIT and BIT, below 1 = synergism
# [2] = single agent, MHB pH 7.0, 10^6 germs per ml
# [3] = CMIT and zinc (ZnCl2), QB assumed 240 ppm
# [4] = CMIT and Bronopol, below 1 = synergism
"MIC (Pseudomonas putida, DSM25068, single agent, MHB pH 7.0, 10^6 germs per ml, read-out: concentration as solitary agent indicating an end point (minimum inhibitory concentration, QA/QB)) [µg/mL]",SMILES,synergy index [1],"concentration as solitary agent indicating an end point (minimum inhibitory concentration, QA/QB) [2]",synergy index [3],synergy index [4]
,"O=c1[nH]sc2ccccc12 [BIT, 1,2-benzisothiazolin-3-one]",1.00,100 ppm,,
,"[Cl-].[Cl-].[Zn+2] [Zn, zinc chloride]",,> 240* ppm,1.00,
,"Cn1sc(Cl)cc1=O [CMIT, 5-chloro-2-methylisothiazolin-3-one]",1.00,1.5 ppm,1.00,1.00
15,"O=[N+]([O-])C(Br)(CO)CO [Bronopol, 2-bromo-2-nitropropane-1,3-diol]",,,,1.00
